{
  "source": "patent US11780832B2",
  "about": "“Lactivicin compounds, their preparation and use as antibacterial agents” (priority 2021, dated 2023)",
  "type_in_all_cases": "cell-based",
  "key": {"[1]": {"tested_on": "Citrobacter freundii species complex Elevated AmpC", "test": "Synergistic activity: MIC in the presence of Avibactam", "conditions": "row r16, in the presence of Avibactam @ 4 μg/mL", "method_in_brief": "(§1)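 Two subcultures from frozen isolate stocks preceded testing. Avibactam was then placed in microdilution plates at a fixed concentration or ratio, bacteria were added to 5×10^5 CFU/mL final, and MICs were determined per CLSI against 2-fold compound dilutions spanning 16-0.0125 μg/mL final.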"}, "[2]": {"tested_on": "Proteus mirabilis CMY-DHA", "test": "Synergistic activity: MIC in the presence of Avibactam", "conditions": "row r36, in the presence of Avibactam @ 4 μg/mL", "method_in_brief": "as §1"}, "[3]": {"tested_on": "Enterobacter cloacae species complex Elevated AmpC", "test": "Synergistic activity: MIC in the presence of Avibactam", "method_in_brief": "as §1"}, "[4]": {"tested_on": "Citrobacter freundii species complex Elevated AmpC", "test": "MIC against Elevated AmpC producing strains, compound alone", "conditions": "row r16", "experimental": "(§2) Gram-negative and Gram-positive bacterial strains used during the in vitro minimum inhibitory concentration (MIC) determination were obtained either from the American Type Culture Collection (ATCC) or from clinical specimens. All strains were characterized genotypically and the respective antibiotic resistance markers for each strain were identified.\n(§3) Isolates were sub-cultured onto appropriate media and stocked in skim milk at −80° C. Following two subcultures from frozen stock, in vitro antimicrobial susceptibility testing was performed using the Clinical and Laboratory Standards Institute (CLSI) broth microdilution method. Briefly, fresh cultures were suspended in culture media to give a final stock inoculum size of 5×10^7 colony forming units per milliliter of broth (CFU/mL). Test compounds were prepared at a stock solution concentration equal to 128 μg/mL, then diluted to give a final an initial working concentration of 32 μg/mL. 100 μL of the stock solutions were added to the first wells in a 96-well plate and were then diluted using a 2-fold dilution method to give a range of 32-0.025 μg/mL. 100 μL of the bacterial suspensions were then added to the 96-well plates to give a final working inoculum size of 5×10^5 CFU/mL. The final compound concentration range was 16-0.0125 μg/mL. […] MICs for comparator agents were determined using custom-designed, in-house prepared 96-well broth microdilution panels."}, "[5]": {"tested_on": "Escherichia coli Elevated AmpC", "test": "MIC against Elevated AmpC producing strains, compound alone", "experimental": "as §2, §3"}, "[6]": {"tested_on": "Enterobacter cloacae species complex Elevated AmpC", "test": "MIC against Elevated AmpC producing strains, compound alone", "experimental": "as §2, §3"}, "[7]": {"tested_on": "Escherichia coli Isogenic TEM-10", "test": "MIC, CLSI broth microdilution", "method_in_brief": "(§4)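 Each strain carries identified resistance markers and was drawn from ATCC or clinical specimens. Susceptibility is tested per CLSI broth microdilution at a final inoculum of 5×10^5 CFU/mL, over a final compound range of 16-0.0125 μg/mL.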"}, "[8]": {"tested_on": "Escherichia coli Isogenic TEM-26", "test": "MIC, CLSI broth microdilution", "method_in_brief": "as §4"}, "[9]": {"tested_on": "Escherichia coli Empty pSMART plasmid", "test": "MIC, CLSI broth microdilution", "method_in_brief": "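The read-out is the minimum inhibitory concentration determined by CLSI broth microdilution. Final compound levels ran from 16 to 0.0125 μg/mL in two-fold steps against about 5×10^5 CFU/mL of genotypically characterized bacteria.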"}, "[10]": {"conditions": "in the presence of Avibactam @ 4 μg/mL"}, "[11]": {"conditions": "strain of row r7, in the presence of Avibactam @ 4 μg/mL"}, "[12]": {"conditions": "strain of row r20, in the presence of Avibactam @ 4 μg/mL"}},
  "data": [
    {"compound": "Nc1nc(/C(=N/OC2(C(=O)O)CCOCC2)C(=O)N[C@H]2CON(C3(C(=O)O)C[C@H](N4C(=O)c5cc(O)c(O)nc5C4=O)C(=O)O3)C2=O)cs1", "note": "(stereo partly drawn) [Cmpd 26, 4-({(Z)-[1-(2-amino-1,3-thiazol-4-yl)-2-({(4S)-2-[(4S)-2-carboxy-4-(2,3-dihydroxy-5,7-dioxo-5,7-dihydro-6H-pyrrolo[3,4-b]pyridin-6-yl)-5-oxooxolan-2-yl]-3-oxo-1,2-oxazolidin-4-yl}amino)-2-oxoethylidene]amino}oxy)oxane-4-carboxylic acid]", "values": [
      {"measurement": "MIC", "setting": "[1]", "value": 0.25, "unit": "µg/mL"},
      {"measurement": "MIC", "setting": "[2]", "value": 0.06, "unit": "µg/mL"},
      {"measurement": "MIC", "setting": "[3]; [10]", "value": 0.25, "unit": "µg/mL"},
      {"measurement": "MIC", "setting": "[3]; [11]", "value": 0.5, "unit": "µg/mL"},
      {"measurement": "MIC", "setting": "[3]; [12]", "value": "<=0.008 μg/mL"},
      {"measurement": "MIC", "setting": "[4]", "value": 1, "unit": "µg/mL"},
      {"measurement": "MIC", "setting": "[5]; strain of row r10", "value": 0.06, "unit": "µg/mL"},
      {"measurement": "MIC", "setting": "[5]; strain of row r11", "value": 0.5, "unit": "µg/mL"},
      {"measurement": "MIC", "setting": "[5]; strain of row r12", "value": 2, "unit": "µg/mL"},
      {"measurement": "MIC", "setting": "[5]; strain of row r13", "value": 0.06, "unit": "µg/mL"},
      {"measurement": "MIC", "setting": "[5]; strain of row r14", "value": 0.12, "unit": "µg/mL"},
      {"measurement": "MIC", "setting": "[5]; strain of row r15", "value": 0.5, "unit": "µg/mL"},
      {"measurement": "MIC", "setting": "[6]", "value": 2, "unit": "µg/mL"},
      {"measurement": "MIC", "setting": "[6]; strain of row r7", "value": 4, "unit": "µg/mL"},
      {"measurement": "MIC", "setting": "[6]; strain of row r20", "value": 1, "unit": "µg/mL"},
      {"measurement": "MIC", "setting": "[7]", "value": 0.03, "unit": "µg/mL"}
    ]},
    {"compound": "Nc1nc(/C(=N/OC2(C(=O)O)CCOCC2)C(=O)N[C@H]2CON(C3(C(=O)O)C[C@H](N4C(=O)c5cc(O)c(O)cc5C4=O)C(=O)O3)C2=O)cs1", "note": "(stereo partly drawn) [Cmpd 8, 4-({(Z)-[1-(2-amino-1,3-thiazol-4-yl)-2-({(4S)-2-[(4S)-2-carboxy-4-(5,6-dihydroxy-1,3-dioxo-1,3-dihydro-2H-isoindol-2-yl)-5-oxooxolan-2-yl]-3-oxo-1,2-oxazolidin-4-yl}amino)-2-oxoethylidene]amino}oxy)oxane-4-carboxylic acid]", "values": [
      {"measurement": "MIC", "setting": "[1]", "value": 0.03, "unit": "µg/mL"},
      {"measurement": "MIC", "setting": "[2]", "value": 0.5, "unit": "µg/mL"},
      {"measurement": "MIC", "setting": "[3]; [10]", "value": 0.06, "unit": "µg/mL"},
      {"measurement": "MIC", "setting": "[3]; [11]", "value": 0.12, "unit": "µg/mL"},
      {"measurement": "MIC", "setting": "[3]; [12]", "value": "<=0.008 μg/mL"},
      {"measurement": "MIC", "setting": "[4]", "value": 0.25, "unit": "µg/mL"},
      {"measurement": "MIC", "setting": "[5]; strain of row r10", "value": 0.015, "unit": "µg/mL"},
      {"measurement": "MIC", "setting": "[5]; strain of row r11", "value": 0.12, "unit": "µg/mL"},
      {"measurement": "MIC", "setting": "[5]; strain of row r12", "value": 0.25, "unit": "µg/mL"},
      {"measurement": "MIC", "setting": "[5]; strain of row r13", "value": 0.03, "unit": "µg/mL"},
      {"measurement": "MIC", "setting": "[5]; strain of row r14", "value": 0.06, "unit": "µg/mL"},
      {"measurement": "MIC", "setting": "[5]; strain of row r15", "value": 0.12, "unit": "µg/mL"},
      {"measurement": "MIC", "setting": "[6]", "value": 0.5, "unit": "µg/mL"},
      {"measurement": "MIC", "setting": "[6]; strain of row r7", "value": 2, "unit": "µg/mL"},
      {"measurement": "MIC", "setting": "[6]; strain of row r20", "value": 0.12, "unit": "µg/mL"},
      {"measurement": "MIC", "setting": "[8]", "value": 0.0149, "unit": "µg/mL"},
      {"measurement": "MIC", "setting": "[7]", "value": 0.0149, "unit": "µg/mL"}
    ]},
    {"compound": "Nc1nc(/C(=N/OC2(C(=O)O)CC2)C(=O)N[C@H]2CON(C3(C(=O)O)C[C@H](N4C(=O)c5cc(O)c(O)cc5C4=O)C(=O)O3)C2=O)ns1", "note": "(stereo partly drawn) [Cmpd 18, (4S)-2-[(4S)-4-{[(2Z)-2-(5-amino-1,2,4-thiadiazol-3-yl)-2-{[(1-carboxycyclopropyl)oxy]imino}acetyl]amino}-3-oxo-1,2-oxazolidin-2-yl]-4-(5,6-dihydroxy-1,3-dioxo-1,3-dihydro-2H-isoindol-2-yl)-5-oxooxolane-2-carboxylic acid]", "values": [
      {"measurement": "MIC", "setting": "[1]", "value": 0.03, "unit": "µg/mL"},
      {"measurement": "MIC", "setting": "[2]", "value": 0.06, "unit": "µg/mL"},
      {"measurement": "MIC", "setting": "[3]; [10]", "value": 0.06, "unit": "µg/mL"},
      {"measurement": "MIC", "setting": "[3]; [11]", "value": 0.12, "unit": "µg/mL"},
      {"measurement": "MIC", "setting": "[3]; [12]", "value": "<=0.008 μg/mL"},
      {"measurement": "MIC", "setting": "[4]", "value": 1, "unit": "µg/mL"},
      {"measurement": "MIC", "setting": "[5]; strain of row r10", "value": 0.03, "unit": "µg/mL"},
      {"measurement": "MIC", "setting": "[5]; strain of row r11", "value": 0.25, "unit": "µg/mL"},
      {"measurement": "MIC", "setting": "[5]; strain of row r12", "value": 0.5, "unit": "µg/mL"},
      {"measurement": "MIC", "setting": "[5]; strain of row r13", "value": 0.06, "unit": "µg/mL"},
      {"measurement": "MIC", "setting": "[5]; strain of row r14", "value": 0.06, "unit": "µg/mL"},
      {"measurement": "MIC", "setting": "[5]; strain of row r15", "value": 0.25, "unit": "µg/mL"},
      {"measurement": "MIC", "setting": "[6]", "value": 1, "unit": "µg/mL"},
      {"measurement": "MIC", "setting": "[6]; strain of row r7", "value": 4, "unit": "µg/mL"},
      {"measurement": "MIC", "setting": "[6]; strain of row r20", "value": 0.25, "unit": "µg/mL"},
      {"measurement": "MIC", "setting": "[9]", "value": 0.0149, "unit": "µg/mL"}
    ]}
  ]
}
